Source: patent US20150018294A1, “MODULATORS OF TOUSLED KINASE IN CELLULAR PROCESSES” (priority 2012, published 2015)
Entries after “also recorded” stand apart in the source; their conditions may differ.

Tests used:
[1] = target: DNA PK (Homo sapiens, UniProt P78527); conditions: cited from earlier work
[2] = target: T1, TLK1B (Homo sapiens, UniProt Q9UKI8); experiment: TLK1B kinase assay (auto kinase assay with γ 32P ATP; recombinant TLK1B with Rad9 peptide); assay type: biochemical; conditions: for activity on TLK (TLK kinase assays): inactive defined at concentrations <10 μM
T1 sequence (Q9UKI8 1-549 isoform Q9UKI8-3): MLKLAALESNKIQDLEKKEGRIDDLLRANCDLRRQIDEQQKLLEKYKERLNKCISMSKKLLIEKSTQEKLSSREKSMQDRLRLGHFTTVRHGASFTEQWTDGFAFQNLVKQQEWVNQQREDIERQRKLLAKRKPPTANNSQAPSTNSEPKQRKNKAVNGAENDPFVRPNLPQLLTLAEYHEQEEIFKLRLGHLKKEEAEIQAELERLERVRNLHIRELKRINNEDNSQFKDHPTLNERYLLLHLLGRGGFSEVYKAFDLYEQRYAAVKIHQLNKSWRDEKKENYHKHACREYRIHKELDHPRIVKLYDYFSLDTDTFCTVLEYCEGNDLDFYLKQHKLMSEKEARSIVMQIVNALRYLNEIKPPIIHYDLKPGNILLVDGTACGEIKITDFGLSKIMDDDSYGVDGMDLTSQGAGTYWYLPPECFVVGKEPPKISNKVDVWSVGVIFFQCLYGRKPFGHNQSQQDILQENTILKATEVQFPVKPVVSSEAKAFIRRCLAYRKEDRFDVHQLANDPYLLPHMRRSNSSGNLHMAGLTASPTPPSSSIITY
Protocol: To identify inhibitors of TLK, we developed a high throughput screen with recombinant TLK1B, a small Rad9 peptide and the ADP Hunter reagent (DiscoveRx). Using this assay, the Innovative North Louisiana Experimental Therapeutics (INLET) screening core (affiliated with the FWCC) screened the Prestwick library, two other proprietary libraries, and a subset of the ChemDiv library (˜6000 compounds).
Following the initial fluorescent screen at a compound concentration of ˜5 μM, potential hits were tested with a more sensitive auto kinase assay with γ 32P ATP. Inhibition of auto phosphorylation was confirmed by TCA precipitable counts (FIG. 1A). The inhibitors are highly specific for TLKs. […] We have additional evidence for direct binding of these compounds to the recombinant protein (to be published elsewhere).
TlK1 immune complexes isolated from […] protein extracts using abtiserum made in our lab and Protein A beads. Adsorbed proteins were washed twice in kinase assay buffer (KAB) (50 mM HEPES pH 7.2, 10 mM MgCl2, 5 mM MnCl2, 2.5 mM EGTA, 1 mM DTT, 1 mM NaF, 0.2 mM sodium o vanadate, […] leupeptin, 2 g/ml aprotinin) and incubated for 15-30 min at 30° C. in KAB supplemented with 10 µM ATP, 10 Ci [−32P]ATP (>5000 Ci/mmol, GE). The proteins were separated on 10% SDS-PAGE gels, transferred to nitrocellulose before exposure on a Phosphorlmager; and then processed for WB with TLK1 antiserum. For kinase assays with recombinant TLK1B protein, the reactions were similar, and carried out with 10 ng TLK1B and 50 ng Rad9 peptide substrate. These were carried out to confirm the initial “hits” from the screen and further to obtain accurate ID50 values for the various inhibitors.

[3] = system: cell cycle; experiment: Cell cycle and apoptosis, with or without doxo; assay type: cell-based; conditions: inhibitor alone, 15 μM
Text: A matching experimental set was processed by WB for evidence of cleaved PARP, and possible effects on ClnD1 accumulation, which occurs in late G1 and throughout S phases. […] The

[4] = system: stalled replication forks; experiment: Restart of stalled replication forks after release from hydroxyurea; assay type: cell-based; conditions: after release from hydroxyurea (HU)
[5] = system: MDA 231-Luc; experiment: MDA 231-Luc xenograft model; assay type: in vivo; conditions: female SCID/bg mice, treatment groups as in PC 3 study
Text: We used the breast cancer model cell line MDA 231-Luc, for more precise quantitation of tumor growth (photon emission is linear with the tumor cell number). Female SCID/bg mice (N=8 per group) received 1×10^6 cells and when the tumors reached ˜500 mm3 (˜104 photons/sec) they were assigned to four treatment groups, as in the study above (Sup. FIG. 4).

[6] = system: PC 3 (human CaP cells); experiment: IHC analysis of excised PC 3 tumors; parameters: species or system SCID/bg mice; conditions: mouse, in vivo
Text: Some features are immediately noticeable even upon H&E staining that could explain the tumor growth patterns. […] We interpret this as being the result of accumulation of DNA damage, including DSBs, which are not promptly repaired, even as they may be expected to occur spontaneously in many cells in the harsh environment of tumor growth. This has in fact been reported before and was attributed to localized hypoxia 24. […] The staining was not negative, as one may think, since inspection at higher magnification confirmed the expected pattern of exclusively nuclear staining and lower intensity in nucleoli. […] This is consistent with the γH2AX pattern, showing a large number of cells harboring repair foci, and thus likely arrested in replication (or progressing slowly through S phase). To further establish this, we looked at presence of RPA foci, which is indicative of stalled forks25. As expected from the large number of proliferating cells (PCNA positive) in control tumors, RPA1 Staining was very strong, and particularly in focal areas. RPA1 staining in tumors from doxo treated mice was interesting. […] In tumors from mice treated with doxo+THD, staining for RPA was very weak and consistent to that obtained for PCNA. […] However, we did stain for P Rad9 (S328) to confirm that the effects were mediated via TLK inhibition, in what we propose is part of a checkpoint deactivation mechanism following repair of spontaneous DNA damage. Indeed, numerous cells stained lightly for P Rad9 in untreated tumor cells in fact, they are perhaps a larger proportion than those staining for γH2AX that presumably represent cells with unrepaired DSBs.

[7] = system: PC 3 (human CaP cells); conditions: THD 0.25 mg daily oral gavage; doxo 1 mg/kg intraperitoneal days 54, 68, 95
Protocol: PC 3 model. A study was undertaken to investigate the in vivo efficacy of THD compared to doxo and to determine any sensitization conferred to the tumor cells by treatment with a combination of the two drugs. Eighty male SCID/bg mice received 1×106 PC 3 (human CaP cells) cells subcutaneous into their flanks. At day 49 post s inoculation, we began weekly tumor measurements by caliper [volume=(L×W2)[…])]. […] At day 54, daily oral gavages of THD (0.25 mg in water) were given, and intraperitoneal injections of doxo (1 mg/kg; see arrows in FIG. 7) were at days 54, 68, and 95 (last day before euthanasia). […] In any case, the tumors were excised at the end of the experiment (before the control group tumors reached the preset end point of 1500 mm3) and processed for IHC analysis. The mice were dosed on last day before euthanasia with doxo to induce bona fide DSBs.

[8] = target: D2 receptor (Homo sapiens, UniProt P14416); conditions: cited from earlier work
D2 receptor, sequence (P14416 whole entry): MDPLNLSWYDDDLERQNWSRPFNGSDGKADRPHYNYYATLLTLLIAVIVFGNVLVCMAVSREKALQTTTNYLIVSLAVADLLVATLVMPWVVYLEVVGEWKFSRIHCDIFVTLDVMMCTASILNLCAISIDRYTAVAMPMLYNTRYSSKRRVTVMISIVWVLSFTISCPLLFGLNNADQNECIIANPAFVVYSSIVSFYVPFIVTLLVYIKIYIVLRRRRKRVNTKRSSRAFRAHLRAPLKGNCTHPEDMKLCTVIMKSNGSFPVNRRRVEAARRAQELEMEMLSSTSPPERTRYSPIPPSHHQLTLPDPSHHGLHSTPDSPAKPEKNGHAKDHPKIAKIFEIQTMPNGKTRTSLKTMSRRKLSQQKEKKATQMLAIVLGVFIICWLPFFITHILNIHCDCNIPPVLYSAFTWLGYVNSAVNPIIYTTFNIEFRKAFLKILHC

[9] = target: T2, GST TLK1B (Homo sapiens, UniProt Q9UKI8); experiment: Binding to GST TLK1B affixed to Immobilon filter; conditions: color will not wash out
T2 sequence (Q9UKI8 1-549 isoform Q9UKI8-3): T1 sequence (Q9UKI8 1-549 isoform Q9UKI8-3)
Text: To determine how structurally related antipsychotic drugs might differ from each other and produce different biological effects, we analyzed optimized drug structures by quantum mechanics (QM) methods. Drugs of interest were built with MarvinSketch 5.3.2 (ChemAxon) for initial optimization of the 3D structure. For the panels shown here (Sup. FIG. 1), orbitals from the highest occupied molecular orbital (HOMO) and the lowest unoccupied molecular orbital (LUMO) have been depicted. […] The planar heterocyclic ring structure of staurosporine and its out of plane aminated glucose moiety are reminiscent of the structure of the phenothiazines. Bulky substituents on the main phenothiazine ring, such as fluorine groups, may only be tolerated in a certain orientation relative to the alkyl side chain, depending upon the reactivity of the side chain. Moreover, the fit at the binding site will be determined by whether active groups in the drugs (rings vs. side chains) serve as donors or acceptors in non bond interactions (e.g., it bonding and van der Waals interactions). While QM characterization of the drugs is not definitive, certain trends emerged from this analysis. In Sup. […] In fact, methylene blue, which stains nucleic acids but not most proteins, remains so tightly bound to GST TLK1B that after its affixation to an Immobilon filter the color bound to the protein will not wash out.

[10] = system: kinase panel (KinomeScan); experiment: KinomeScan kinase panel (DiscoverRx); assay type: binding; conditions: significantly inhibited = >60% at 10 μM
[11] = system: panel of cell lines; experiment: Doubling in a larger panel of cell lines; assay type: cell-based; conditions: inhibitor alone
Text: inhibitors had generally similar potency in additive killing with doxo in both DU145 and PC3 (FIG. 6). The RMT potentiation is not limited to these two CaP cell lines, but is also true for MDA MB231 BCA cells (FIG. 6). […] The TLK inhibitors by themselves had little effect on MDA231 viability and doubling (Sup. FIG. 3). […] This is consistent with their proposed mechanism as inhibitors of DSB repair.

[12] = system: Rad9 S328 phosphorylation in DU145 cells; experiment: Rad9 S328 phosphorylation and checkpoint markers in DU145 cells after H2O2; assay type: cell-based, human
Protocol: The inhibitors worked as expected on the pattern of phosphorylation of Rad9 […]. After treatment of DU145 cells with H2O2 for 10 min to generate breaks, there is a corresponding wave of phosphorylation and dephosphorylation of […] after completion of repair (FIG. 5) that matches the pattern of activity of TLK1/1B TLKs are the only known kinases that phosphorylate Rad9 […] 4. Generation of DSBs causes transient inhibition of TLK1 and simultaneous synthesis of TLK1B, which then results in hyper phosphorylation of […] upon restoration of kinase activity [FIG. 5A; 5]. Once H2O2 is degraded and most DNA breaks are repaired, the phosphorylation returns to baseline. The inhibitors, PPH (LS125) in particular, blocked the activation of TLK and consequent phosphorylation of Rad9 ([…]) (5C). […] FIG. 5). A key role of TLKs is then to participate in restoration of cell cycle upon completion of repair. Interfering with this process has dire consequences for cell viability; more likely for cancer cells that are genetically more unstable and already have defects in DNA repair functions, if not just for their reliance on these kinases.

Structure (SMILES): CN1CCN(CCCN2c3ccccc3Sc3ccc(C(F)(F)F)cc32)CC1 [TFP, trifluoperazine]
- DNA PK inhibition ([1]; TFP 10-20 μM): not inhibited
- reported inhibition of DNA PK in vitro, concentration ([1]; in vitro): 0.1 to 0.2 mM
- activity on TLK (TLK kinase assays) [2]: active; also recorded: identified as TLK inhibitors
- inhibition of TLKs ([2]; sub toxic concentrations 10-20 μM): completely inhibit TLKs
- (apoptotic) sub G1 cells [3]: very modest increase
- cleaved PARP [3]: very modest evidence of cleaved PARP
- effect on the cell cycle [3]: little effect on the cell cycle
- restart of stalled replication forks and linked phosphorylation of Rad9 (S328) [4]: greatly extends this process

Structure (SMILES): CN1CCN(CCCN2c3ccccc3Sc3ccc(Cl)cc32)CC1 [PCP, prochlorperazine]
- activity on TLK (TLK kinase assays) [2]: inactive

Structure (SMILES): COc1cccc2c1C(=O)c1c(O)c3c(c(O)c1C2=O)C[C@@](O)(C(=O)CO)C[C@@H]3O[C@H]1C[C@H](N)[C@H](O)[C@H](C)O1 [doxo, doxorubicin]
- tumor growth (photon emission) [5]: insufficient to stop growth of tumors
- P Rad9 (S328) staining [6]: much stronger staining for P Rad9
- RPA staining [6]: overall staining was weaker for most areas of the section
- cellular density of the tumor (H&E staining) [6]: only slightly decreased the cellular density of the tumor
- γH2AX positive cells [6]: a large proportion
- tumor growth [7]: definite trend was seen for doxo reducing tumor growth

Structure (SMILES): c1ccc2c(c1)Nc1ccccc1S2 [phenothiazine]
- activity on TLK (TLK kinase assays) [2]: highly inhibitory

Structure (SMILES): OCCN1CCN(CCCN2c3ccccc3Sc3ccc(C(F)(F)F)cc32)CC1 [FF, fluphenazine]
- activity on TLK (TLK kinase assays) [2]: inactive for TLK
- D2 receptor antagonism [8]: more potent D2 receptor antagonist than either TFP (active) or THD

Structure (SMILES): CCSc1ccc2c(c1)N(CCCN1CCN(C)CC1)c1ccccc1S2 [TEZ, thiethylperazine]
- activity on TLK (TLK kinase assays) [2]: identified as TLK inhibitors

Structure (SMILES): CN(C)c1ccc2nc3ccc(=[N+](C)C)cc-3sc2c1 [methylene blue]
- binding to GST TLK1B [9]: tightly bound
- activity on TLK (TLK kinase assays) [2]: highly inhibitory

Structure (SMILES): CSc1ccc2c(c1)N(CCC1CCCCN1C)c1ccccc1S2 (stereo not drawn) [THD, Thioridazine]
- tumor growth (photon emission) [5]: effective at controlling tumor increase
- inhibition of other kinases in the panel [10]: no other kinase in the panel was significantly inhibited
- activity on TLK (TLK kinase assays) [2]: active; also recorded: identified as TLK inhibitors
- cell doubling / growth [11]: not found very many cancer cell lines that were sensitive to THD
- P Rad9 (S328) staining [6]: severe suppression of P Rad9
- PCNA positive cells [6]: significantly fewer PCNA positive cells
- cellular density of the tumor (H&E staining) [6]: clearly reduced the tumor density
- γH2AX positive cells [6]: a large proportion of positive staining cells

Structure (SMILES): CN(C)CCCN1c2ccccc2Sc2ccccc21 [PMZ, promazine]
- activity on TLK (TLK kinase assays) [2]: identified as TLK inhibitors
- D2 receptor antagonism [8]: does not have much activity as a D2 antagonist

Structure (SMILES): OCCN1CCN(CCCN2c3ccccc3Sc3ccc(Cl)cc32)CC1 [PPH, perphenazine]
- Chk1 activation (P Chk1 S345) ([12]; H2O2): persistent activation of Chk1
- cleavage of cdc25A ([12]; H2O2): elicited much faster
- phosphorylation of Rad17 ([12]; H2O2): prolonged phosphorylation of Rad17
- activation of TLK and phosphorylation of Rad9 (S328) ([12]; H2O2 for 10 min): blocked the activation of TLK and consequent phosphorylation of Rad9 (S328)
- activity on TLK (TLK kinase assays) [2]: identified as TLK inhibitors
